Assay results as given in US7541495B2, “para-alkyl-substituted N-(4-hydroxy-3-methoxy-benzyl)-cinnamamides, pharmaceutical compositions and uses thereof” (Gruenenthal GmbH, priority 2004, dated 2009).

Columns and labels:
[1] = molecular target: T1, rat vanilloid receptor 1 (VR1/TRPV1) (Rattus norvegicus, UniProt O35433); test: FLIPR Ca2+ influx functional study on rat vanilloid receptor 1; format: cell-based; details: CHO K1 cells transfected with rat VR1; for Emax at 10 µM: test substance 10 μM, Ca2+ signal relative to 10 μM capsaicin, read-out: VR1 (Rat) (% Stimulation compared with 10 μM CP)
T1 construct: expressed in transfected cells; host or cells: CHO K1 cells (ECACC)
Text: (§1) 1. Functional Study on the Vanilloid Receptor 1 (VR1/TRPV1 Receptor)
(§2) The agonist activity or antagonist activity of the substances to be tested on the vanilloid receptor 1 (VR1/TRPV1) of the species human and rat can be determined using the following assay. According to this assay, the Ca^2+ influx through the channel is quantified by means of a Ca^2+-sensitive dye (type Fluo-4, Molecular Probes Europe BV, Leiden, Netherlands) in the Fluorescent Imaging Plate Reader (FLIPR, Molecular Devices, Sunnyvale, USA).
(§3) Chinese hamster ovary cells (CHO K1 cells, European Collection of Cell Cultures (ECACC), England) are stably transfected with the human or rat vanilloid receptor 1 (VR1) gene. For functional studies, these cells are plated out in a density of 25,000 cells/well on poly-D-lysine-coated, black 96-well plates having a clear base (BD Biosciences, Heidelberg, Germany). The cells are incubated overnight at 37° C. and 5% CO2 in culture medium (Nutrient Mixture Ham's F12, Gibco Invitrogen GmbH, Karlsruhe, Germany) with 10% v/v of FBS (fetal bovine serum, Gibco Invitrogen GmbH, Karlsruhe, Germany) and 18 μg/ml of L-proline (Gibco Invitrogen GmbH, Karlsruhe, Germany). On the following day, the cells are charged with 2 μM of Fluo-4 and 0.01% v/v of Pluronic F127 (Molecular Probes Europe BV, Leiden, Netherlands) in HBSS buffer solution (Hank's buffered saline solution, Gibco Invitrogen GmbH, Karlsruhe, Germany) for 30 minutes at 37° C. The plates are then washed three times with HBSS buffer solution and, after incubation for a further 15 minutes at room temperature, used in the FLIPR assay for Ca^2+ measurement. The Ca^2+-dependent fluorescence is measured before and after the addition of test substances (λex=488 nm, λem=540 nm). Quantification is effected by measuring the highest fluorescence intensity (FC, fluorescence counts) over time.
(§4) The FLIPR protocol consists of two additions of test substance. Test substances (10 μM) are first pipetted onto the cells and the Ca^2+ influx is compared with the control (capsaicin 10 μM). This gives the percentage activation, based on the Ca^2+ signal after the addition of 10 μM of capsaicin (CP). After 5 minutes' incubation, 100 nM of capsaicin are applied and the influx of Ca^2+ is likewise determined. Desensitizing agonists and antagonists lead to suppression of the Ca^2+ influx. The percentage inhibition compared with the maximum achievable inhibition is calculated using 10 μM of capsaicin. In order to determine the EC50 values, the substances are added in various concentrations. Determinations are carried out in triplicate (n=3) and these are repeated in at least three independent experiments (N=4).
(§5) The agonist activity or antagonist activity was determined on human and rat vanilloid receptor 1 (VR1/TRPV1 receptor) using the above-described FLIPR assay.

[2] = molecular target: T2, human vanilloid receptor 1 (VR1/TRPV1) (Homo sapiens, UniProt Q8NER1); test: FLIPR Ca2+ influx functional study on human vanilloid receptor 1; format: cell-based; details: CHO K1 cells transfected with human VR1; for Emax at 10 µM: test substance 10 μM, Ca2+ signal relative to 10 μM capsaicin, read-out: VR1 (Human) (% Stimulation compared with 10 μM CP)
T2 construct: expressed in transfected cells; host or cells: CHO K1 cells (ECACC)
Text: as §1, §2, §3, §4, §5

[3] = tested on: phenylquinone-induced writhing in mice; test: Phenylquinone-induced writhing test on mice; format: in vivo, male NMRI mice; details: phenylquinone i.p. 10 min after dose
Protocol: 2. Analgesic Test Using the Writhing Test on Mice
The analysis of analgesic activity in the compounds of the invention of formula is carried out using the phenylquinone-induced writhing assay in mice, modified as described in the article by I. C. Hendershot and J. Forsaith (1959) in J. Pharmacol. Exp. Ther. 125, 237-240. The relevant description is incorporated herein by reference and is to be regarded as part of the present disclosure.
For the present purpose, male NMRI mice are used having a weight of from 25 to 30 g. Groups of 10 animals per substance dose received, 10 minutes after an intravenous dose of test substances, an intraperitoneal administration of 0.3 ml/mouse of a 0.02% strength aqueous solution of phenylquinone(phenylbenzoquinone, obtainable from Sigma, Deisenhofen; solution produced with the addition of 5% of ethanol and storage in a water bath at 45° C.). The animals were placed individually in observation cages. Using a pushbutton counter, the number of pain-induced stretching movements (so-called writhing reactions=straightening of the body accompanied by stretching of the rear extremities) was counted over a period of from 5 to 20 minutes following the administration of phenylquinone. The control is provided by animals receiving only physiological saline. […]

T1 sequence (O35433 whole entry): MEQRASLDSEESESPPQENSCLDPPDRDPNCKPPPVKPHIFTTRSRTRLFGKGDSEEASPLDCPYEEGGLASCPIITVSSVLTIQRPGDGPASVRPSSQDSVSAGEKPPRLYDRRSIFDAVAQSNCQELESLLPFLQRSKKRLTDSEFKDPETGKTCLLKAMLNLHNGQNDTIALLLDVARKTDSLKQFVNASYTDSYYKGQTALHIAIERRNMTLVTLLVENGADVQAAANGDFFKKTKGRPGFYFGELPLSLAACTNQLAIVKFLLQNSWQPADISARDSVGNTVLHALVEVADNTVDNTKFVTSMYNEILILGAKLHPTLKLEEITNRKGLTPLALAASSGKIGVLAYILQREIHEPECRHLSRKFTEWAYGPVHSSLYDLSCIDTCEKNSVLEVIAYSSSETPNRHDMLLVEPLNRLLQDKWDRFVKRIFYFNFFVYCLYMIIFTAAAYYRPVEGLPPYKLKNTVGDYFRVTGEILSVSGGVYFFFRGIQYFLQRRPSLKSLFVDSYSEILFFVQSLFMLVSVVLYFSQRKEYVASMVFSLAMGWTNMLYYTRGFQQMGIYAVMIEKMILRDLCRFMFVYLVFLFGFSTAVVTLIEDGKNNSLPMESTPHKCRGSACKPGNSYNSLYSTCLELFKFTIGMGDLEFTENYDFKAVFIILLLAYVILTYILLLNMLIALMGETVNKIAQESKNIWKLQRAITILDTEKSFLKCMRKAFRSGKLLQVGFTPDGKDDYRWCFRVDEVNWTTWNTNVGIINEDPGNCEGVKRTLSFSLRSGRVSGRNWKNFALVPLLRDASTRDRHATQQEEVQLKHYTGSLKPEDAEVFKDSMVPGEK
T2 sequence (Q8NER1 whole entry): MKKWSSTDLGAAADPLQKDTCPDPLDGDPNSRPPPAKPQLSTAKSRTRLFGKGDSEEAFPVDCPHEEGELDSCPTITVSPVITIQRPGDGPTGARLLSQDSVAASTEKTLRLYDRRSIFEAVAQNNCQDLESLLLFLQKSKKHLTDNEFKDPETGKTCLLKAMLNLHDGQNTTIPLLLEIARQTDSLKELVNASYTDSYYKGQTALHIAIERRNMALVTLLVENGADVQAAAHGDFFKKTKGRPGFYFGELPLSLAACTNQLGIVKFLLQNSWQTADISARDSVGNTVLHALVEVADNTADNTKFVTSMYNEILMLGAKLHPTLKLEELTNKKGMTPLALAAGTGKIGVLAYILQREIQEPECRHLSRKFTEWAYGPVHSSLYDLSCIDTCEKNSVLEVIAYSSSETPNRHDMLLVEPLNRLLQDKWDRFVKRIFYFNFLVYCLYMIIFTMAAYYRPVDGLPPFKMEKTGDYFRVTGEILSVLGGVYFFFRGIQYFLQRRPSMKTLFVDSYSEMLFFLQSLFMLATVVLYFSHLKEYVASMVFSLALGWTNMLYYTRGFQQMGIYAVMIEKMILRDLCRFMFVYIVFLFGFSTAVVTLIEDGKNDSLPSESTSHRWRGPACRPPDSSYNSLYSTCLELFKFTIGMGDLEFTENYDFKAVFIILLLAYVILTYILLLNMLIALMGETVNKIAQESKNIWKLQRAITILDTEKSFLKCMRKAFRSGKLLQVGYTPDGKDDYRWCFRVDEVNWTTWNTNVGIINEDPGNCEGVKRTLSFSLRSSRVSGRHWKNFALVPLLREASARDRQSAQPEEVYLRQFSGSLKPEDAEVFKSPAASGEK

## CCCCCCCCc1ccc(/C=C/C(=O)NCc2ccc(O)c(OC)c2)cc1 [Example 9, para-octyl-trans-N-(4-hydroxy-3-methoxybenzyl)-cinnamic acid amide]
[1]
  Emax at 10 µM: 126%
[2]
  Emax at 10 µM: 97%
[3]; 0.1 mg/kg i.v.
  Reduction of Nociceptive Behavior Relative to Controls: 47%

## COc1cc(CNC(=O)/C=C/c2ccc(CC(C)C)cc2)ccc1O [Example 6, para-iso-butyl-trans-N-(4-hydroxy-3-methoxybenzyl)-cinnamic acid amide]
[1]
  Emax at 10 µM: 141%
[2]
  Emax at 10 µM: 103%
[3]; 0.1 mg/kg i.v.
  Reduction of Nociceptive Behavior Relative to Controls: 70%

## COc1cc(CNC(=O)/C=C/c2ccc(C(C)C)cc2)ccc1O [Example 3, para-isopropyl-trans-N-(4-hydroxy-3-methoxybenzyl)-cinnamic acid amide]
[1]
  Emax at 10 µM: 97%
[2]
  Emax at 10 µM: 71%
[3]; 0.1 mg/kg i.v.
  Reduction of Nociceptive Behavior Relative to Controls: 52%

## CCc1ccc(/C=C/C(=O)NCc2ccc(O)c(OC)c2)cc1 [Example 2, para-ethyl-trans-N-(4-hydroxy-3-methoxybenzyl)-cinnamic acid amide]
[1]
  Emax at 10 µM: 84%
[2]
  Emax at 10 µM: 71%
[3]; 0.1 mg/kg i.v.
  Reduction of Nociceptive Behavior Relative to Controls: 54%

## COc1cc(CNC(=O)/C=C/c2ccc(CC(C)(C)C)cc2)ccc1O [Example 7, para-neo-pentyl-trans-N-(4-hydroxy-3-methoxybenzyl)-cinnamic acid amide]
[1]
  Emax at 10 µM: 142%
[2]
  Emax at 10 µM: 102%

## COc1cc(CNC(=O)/C=C/c2ccc(C)cc2)ccc1O [Example 1, para-methyl-trans-N-(4-hydroxy-3-methoxybenzyl)-cinnamic acid amide]
[1]
  Emax at 10 µM: 92%
[2]
  Emax at 10 µM: 56%

## CCCCc1ccc(/C=C/C(=O)NCc2ccc(O)c(OC)c2)cc1 [Example 8, para-butyl-trans-N-(4-hydroxy-3-methoxybenzyl)-cinnamic acid amide]
[1]
  Emax at 10 µM: 132%
[2]
  Emax at 10 µM: 110%

## COc1cc(CNC(=O)/C=C/c2ccc(C(C)(C)C)cc2)ccc1O [Example 4, para-tert.-Butyl-trans-N-(4-hydroxy-3-methoxybenzyl)-cinnamic acid amide]
[1]; FLIPR Ca2+ influx
  EC50: 0.129 nM
[1]
  Emax at 10 µM: 106%
[2]; FLIPR Ca2+ influx
  EC50: 0.147 nM
[2]
  Emax at 10 µM: 115%
[3]; 0.1 mg/kg i.v.
  Reduction of Nociceptive Behavior Relative to Controls: 63%

## CCCc1ccc(/C=C/C(=O)NCc2ccc(O)c(OC)c2)cc1 [Example 5, para-propyl-trans-N-(4-hydroxy-3-methoxybenzyl)-cinnamic acid amide]
[1]
  Emax at 10 µM: 119%
[2]
  Emax at 10 µM: 102%
[3]; 0.316 mg/kg i.v.
  Reduction of Nociceptive Behavior Relative to Controls: 55%
